Laboratory results from patent US20230220416A1, “NOVEL TR[…] AND USES THEREOF” (priority 2020, published 2023).

Legend:
human CD34-positive HSC = assay: Lentiviral SIN vector transduction of CD34-positive HSC at MOI 1, 3 or 5 in X-Vivo 20, VCN by qPCR (Example 1); settings: each with 4 μg/mL protamine sulfate, VCN with protamine sulfate only set as 1, 1 μg/mL Amphotericin B, 1 mg/ml Lentiboost
Excerpt: This vector encodes human p47phox cDNA under control of the miR223 internal promoter. Cells were transduced in presence of protamine sulfate only (resulting VCN set to 100%), or in presence of protamine sulfate (PS) plus one or more compounds tested for transduction enhancer activity. After 10 to 12 days post transduction, DNA from transduced cells was isolated, and VCNs were quantified by qPCR. The increase in VCN relative to the VCN achieved upon transduction in presence of protamine sulfate only was expressed as “fold induction rel. to PS”.
Thawed cells from healthy donors were cultured in 96 well plates comprising X-Vivo 20 medium supplemented with 1% human serum albumin, 300 μg/ml stem cell factor (SCF), 300 μg/ml fins like tyrosine kinase 3 (FLT-3) ligand (Flt3-lig) and 100 μng/ml Thrombopoietin (TPO) at a density of 0.5 E6 cells/cm^2, and at a concentration of 1E6 cells/ml for 22h, optionally followed by 2h of pre-stimulation with below mentioned compounds. Afterwards, cells were incubated for transduction with the lentiviral SIN gene therapy vector for 12 h in presence of the compounds indicated below and protamine sulfate. After the 12 h transduction period, the medium was exchanged by above mentioned medium, and cells were transferred to 12-well plates in which they were cultured in a volume of 1 ml for 5 to 7 days depending on cell density. Thereafter, medium was exchanged by fresh medium, and cells were cultured in 2 ml for another 6 days. At day 12 post transduction, DNA was isolated, and vector copy number (VCN) was quantified by qPCR. All experiments were conducted in triplicates. For negative control, a triplicate of non-transduced cells was cultured as described. To determine the baseline of transduction efficacy in presence of only protamine sulfate, cells were incubated with MOI 1, MOI 3 or MOI 5 of the lentiviral SIN vector in presence of 4 μg/mL protamine sulfate.
After 10 to 12 days, non-integrated pro-viral DNA was diluted out due to the proliferation of cells in the plate and VCNs were quantified thereafter by qPCR. Every condition was tested in triplicates and the average of VCNs of triplicates for each individual condition was calculated. To evaluate the transduction enhancement activity of the tested compounds, average VCNs of cells transduced in the presence of protamine sulfate was set as 1, and enhancement of transduction was expressed as X-fold increase relative to transduction in the presence of protamine sulfate only.

target cell = assay type: cell-based; settings: for transduction efficiency of a target cell, single enhancer (result in words): Amphotericin B 0.5-1 μg/mL, Silibinin 1 to 5 μM, Midostaurin 100 to 400 nM, Nystatin 100 μM, Natamycin 3 μM, Everolimus 1 μM, deoxyribonucleosides 0.3-2.5 mM, PEG-PLA-PEG 10 μg/mL, PEG-PCL-PEG 10 μg/mL, Resveratrol 5 μM, Prostaglandin E2 10 μM, Poloxamer synperonic F108 0.5-2 mg/mL, DMSO 1% (v/v), protamine salts 4 μg/mL; for suitability of approved therapeutic compounds as transduction enhancers (result in words): no concentration stated
Excerpt: The efficiency of a transduction experiment may be determined as known in the art. Preferably, transduction efficiency may be measured by determining the vector copy number (VCN) in a single cell after a transduction experiment or by measuring the average VCN in a population of cells after a transduction experiment. “Vector copy number” or “VCN” refers to the number of copies of a vector, or portion thereof, in a cell's genome. The average VCN may be determined from a population of cells or from individual cell colonies. Exemplary methods for determining VCN include any form of polymerase chain reaction (PCR), such as qPCR or digital droplet PCR, and flow cytometry. […] 479-487 or as described in Examples 1 or 5.
Several transduction enhancers and combinations of transduction enhancers reported herein result in an increase in transduction efficiency. An “increase in transduction efficiency” refers to an increase in VCN upon transduction of a cell population by a gene therapy vector in presence of a transduction enhancer compared to the absence of a transduction enhancer.

Human CD34+HSC = assay: Lentiviral SIN vector transduction of CD34+ HSC at MOI 20 with or without 1% DMSO, VCN; assay type: cell-based; settings: 2 h pre-stimulation and 16 h incubation, X-Vivo 20, VCN without DMSO 0.915
Method: Cells were transduced in the absence and presence of 1% DMSO.
The transduction process comprised a 2 h pre-stimulation period in presence of 1% DMSO, followed by 16 h incubation of pre-stimulated cells with the gene therapy vector with an MOI 20 in presence of 1% DMSO.

[1] = MOI of 1, 5 μM Silibinin, 5 μM Resveratrol, 1 μM Everolimus, 0,4 μM Midostaurin, 100 μM Nystatin, 3 μM Natamycin

| Compound | increase in the efficiency of lentiviral transduction (VCN), fold induction rel. to PS (human CD34-positive HSC; [1]) | transduction efficiency of a target cell, single enhancer (result in words) (target cell) | suitability of approved therapeutic compounds as transduction enhancers (result in words) (target cell) | vector copy number (VCN) (Human CD34+HSC) | increase in the efficiency of lentiviral transduction (VCN), fold induction rel. to PS (human CD34-positive HSC; MOI of 3, 1 μM Everolimus) |
| --- | --- | --- | --- | --- | --- |
| C[C@@H]1[C@H](O)[C@@H](C)/C=C/C=C/CC/C=C/C=C/C=C/C=C/C(O[C@H]2O[C@H](C)[C@@H](O)[C@H](N)[C@@H]2O)CC2O[C@](O)(CC(O)C(O)CCC(O)CC(O)CC(O)CC(=O)O[C@H]1C)CC(O)C2C(=O)O (stereo partly shown) [Nystatin] | (factor 2.6) fold | enhances the transduction efficiency | efficient transduction enhancers | – | – |
| Nc1nc(F)nc2c1ncn2[C@@H]1O[C@H](CO)[C@@H](O)[C@@H]1O [Fludarabine] | – | – | efficient transduction enhancers | – | – |
| 2,3-Dihydro-3-(4-hydroxy-3-methoxyphenyl)-2-(hydroxymethyl)-6-(3,5,7-trihydroxy-4-oxobenzopyran-2-yl)benzodioxin [Silibinin] | (factor 4.8) fold | enhances the transduction efficiency | efficient transduction enhancers | – | – |
| C[S+](C)[O-] [DMSO, Dimethyl sulfoxide] | – | enhances the transduction efficiency | – | 1.16 | – |
| C[C@@H]1[C@H](O)[C@@H](C)/C=C/C=C/C=C/C=C/C=C/C=C/C=C/[C@H](O[C@@H]2O[C@H](C)[C@@H](O)[C@H](N)[C@@H]2O)C[C@@H]2O[C@](O)(C[C@@H](O)C[C@@H](O)[C@H](O)CC[C@@H](O)C[C@@H](O)CC(=O)O[C@H]1C)C[C@H](O)[C@H]2C(=O)O [Amphotericin B] | (factor 3) fold | enhances the transduction efficiency | efficient transduction enhancers | – | (factor 2.2) fold |
| CO[C@@H]1[C@H](N(C)C(=O)c2ccccc2)C[C@H]2O[C@]1(C)n1c3ccccc3c3c4c(c5c6ccccc6n2c5c31)C(=O)NC4 [Midostaurin] | (factor 4.2) fold | – | – | – | – |
| CO[C@H]1C[C@@H]2CC[C@@H](C)[C@@](O)(O2)C(=O)C(=O)N2CCCC[C@H]2C(=O)O[C@H]([C@H](C)C[C@@H]2CC[C@@H](OCCO)[C@H](OC)C2)CC(=O)[C@H](C)/C=C(\C)[C@@H](O)[C@@H](OC)C(=O)[C@H](C)C[C@H](C)/C=C/C=C/C=C/1C [Everolimus] | (factor 13.5) fold | enhances the transduction efficiency | – | – | (factor 2.5) fold |
| C[C@@H]1C/C=C/C=C/C=C/C=C/[C@H](O[C@@H]2O[C@H](C)[C@@H](O)[C@H](N)[C@@H]2O)C[C@@H]2O[C@](O)(C[C@@H](O)C[C@H]3O[C@@H]3/C=C/C(=O)O1)C[C@H](O)[C@H]2C(=O)O [Natamycin] | – | – | efficient transduction enhancers | – | – |
| CCCCC[C@H](O)/C=C/[C@H]1[C@H](O)CC(=O)[C@@H]1C/C=C\CCCC(=O)O [Prostaglandin E2] | – | enhances the transduction efficiency | – | – | – |
